Experiments:
Format in all cases: cell-based
OV-2774 = assay: Cytotoxicity assay (WST1); details: Ovarian, OV-2774, WST1
Method: (§1) 5,000 cells/well were seeded in 96-well plates with appropriate culture media. After cells treatment, WST-1 reagent (Sigma-Aldrich) was added to each well according to the manufacturer's instructions. These experiments were performed in triplicates and were repeated several times.

HCT-116 = assay: Cytotoxicity assay (WST1); details: Colon, HCT-116, WST1
Method: as §1

A1235 = assay: Cytotoxicity assay (WST1); details: Glioblastoma
Method: as §1

Cal62 = assay: Cytotoxicity assay (WST1); details: Thyroid
Method: as §1

H-1937 = assay: Cytotoxicity assay (WST1); details: Lung, H-1937, WST1
Method: as §1

MG-64 = assay: Cytotoxicity assay (WST1); details: Osteosarcoma, MG-64, WST1
Method: as §1

CSC (MDA-MB-231) = assay: WST1 cytotoxicity on pre-formed tumorspheres (cancer stem cells); details: cisplatin 50 µM for 24 h, MDA-MB-231 tumorspheres
Method: (§2) It is well known that cancer stem cells are the most resistant type of cells, which are responsible for recurrence and metastasis (Garcia-Mayea et al., 2020). Therefore, we decided to investigate the effect of eugenoplatin on the self-renewal ability and sternness capacity of cancer cells. To this end, cancer cells were first either sham-treated (DMSO) or challenged with eugenoplatin (3 µM) for 24 h, and then were incubated in 96 well ultra-low attachment plates in the presence of stem cells culture medium. After 10 days, the formed spheroids with a dimeter ≥ 100 µm were counted (Fig. 6A).
as §1
(§3) Cells were seeded in 96 well ultra-low attachment plate at a density of 1000 viable cells/well. Cells were cultured in 171 medium supplemented with 1% ABM, 2% B-27, 20 ng/mL EGF, 500 ng/ml HC, 4% FBS and 5 µg/ml insulin. Cells were incubated for 10 days at 37°C under 5% CO2. Mammospheres with a diameter of ≥100 µm were counted using OPTIKA light microscope.

CSC (MG-64) = assay: as above; details: cisplatin 50 µM for 24 h, MG-64 tumorspheres
Method: as §2, §1, §3

[1] = system: human fibroblast cells (HFSN1); assay: γ-H2AX immunofluorescence (DNA damage); details: cisplatin 50 µM for 24 h
Method: Since cisplatin is a DNA damaging chemotherapeutic drug, we investigated whether eugenoplatin can also promote DNA damage in cells. […] To confirm this, we assessed the level of the phosphorylated form of p53 (P.p53) in eugenoplatin-treated cells. […] This was accompanied by a late increase in the level of the p53 target p21 (Fig. 7B).
HFSN1 cells were fixed in formaldehyde (4%) for 19 minutes and blocked with Goat serum (5%), triton X (0.3%) and 1% sodium azide (5%) for 1 hour. The slides were then stained overnight at 4 °C with γ-H2AX antibody (pSer139) (Novusibio) that diluted in BSA (1%), triton X (0.3%) and 1 % sodium azide (5%), and subsequently incubated with alexa flour 594-conjugated goat anti-rabbit IgG and DAPI for 1 hour. Images were acquired using fluorescence microscope (Zeiss).

N.N.O=C([O-])C1(C(=O)[O-])CCC1.[Pt+2] [Carboplatin] showed an IC50 (OV-2774) of 53.3 ± 0.67 µM.
Molecule O=C(O)C(=O)O.[NH-][C@@H]1CCCC[C@H]1[NH-].[Pt+2] [Oxaliplatin] has an IC50 (HCT-116) of 3.17 ± 0.52 µM.
With N.N.[Cl][Pt][Cl] [Cisplatin, (SP-4-2)-diamminedichloridoplatinum(II)] the IC50 (A1235) was 55.8 ± 18.2 µM, the IC50 (Cal62) was 25.7 ± 2.19 µM and the IC50 (H-1937) was 67.8 ± 7.75 µM. The IC50 (MG-64) was 26 ± 4 µM, the “proportion of survival CSC” value (CSC (MDA-MB-231)) was “not affected” and the “proportion of survival CSC” value (CSC (MG-64)) was “not affected”. For the same molecule, the γ-H2AX immunostaining [1] was “strong nuclear staining”.
